This note sets out measurements from PMC11927960, “Multiparameter ranking of carbazoles for anti-trypanosome lead discovery” (Frontiers in drug discovery, 2024).

The structures appear in SMILES notation. Read-outs that look alike come from different tables or passages of the source.

The subject of one data set is T. brucei Lister427. The data set can be described thus: Trypanosome proliferation inhibition assay (SYBR Green, 48 h). The class given is cell-based. The conditions noted are these: Trypanosoma brucei; continuous exposure 48 h, 4 × 10^3 trypanosomes/mL. The protocol: Trypanosome proliferation inhibition assays
T. b. Lister 427 or T. b. AnTat1.1 were seeded at 4 × 10^3 cells/mL or 2 × 10^3 cells/mL (in 50 μL culture medium), respectively, into 384-well black plate (Greiner; Frickenhausen, Germany) and treated with serial dilutions of each compound in duplicate. Plates were incubated for 48 h at 37 °C and 5% CO2. […] Fluorescence in lysates was quantitated with a fluorometer (Fluoroskan Ascent Microplate Fluorometer, Thermo Scientific) (100 ms; ex: 485 nm, em: 538 nm). Each experiment was performed in triplicate.

The nature of data set [1]: Plasma pharmacokinetics after single oral dose. The format is in vivo, Swiss Webster mice. The conditions noted are these: Swiss Webster, mouse; for AUC(0-t): female mice values of Table 3, quoted in μM, read-out: AUC0–6h. The protocol:
The plasma concentration and tissue distribution of drugs were determined by Absorption Systems. […] Blood and brain samples were obtained at 1, 2, 4, and 6 h post-dosing, and plasma and brain concentrations of the drug were determined using LC-MS/MS. Stock standards for calibration were prepared in a matrix comprising equal volumes of water and mouse blood containing K2-EDTA as an anticoagulant. Working solutions were prepared in 50:50 acetonitrile–water and added to the matrix to final concentrations of 1,000, 500, 100, 50.0, 10.0, 5.00, 1.00, and 0.500 ng/mL for all compounds. Pharmacokinetic parameters were determined using Phoenix WinNonlin (v8.0) software with sparse sampling. Maximum plasma concentration (Cmax) and the time to reach maximum plasma concentration (tmax) were determined from the four data points. The area under the time concentration curve (AUClast) was calculated using the linear trapezoidal rule with calculation to a 6-h data point. Plasma half-life (t1/2) was calculated from 0.693/slope of the terminal elimination phase. Samples below the limit of detection (0.500 ng/mL) were treated as 0.

A further data set in a line: in vivo. Particulars: both sexes, mouse, oral, Swiss Webster mice, 10 consecutive days, read-out: Repeated maximum tolerated dose (rMTD). The protocol:
Maximum tolerated dose of compounds in mice.
To determine a single maximum tolerated dose (sMTD), male and female Swiss Webster mice were first given a single 50 mg/kg dose of compound formulated in N-methyl-2-pyrrolidone (10% v/v) and 0.2% hydroxypropyl methylcellulose (90% v/v). Mice were monitored daily for up to 7 days post-administration for overall condition using a Total Condition Scoring (TCS) system (Supplementary Table S1) and body weight changes. If greater than 20% body weight loss was recorded, the dose was lowered in two-fold amounts in subsequent tests. […] When no toxicity was observed, sMTD values were utilized to determine the repetitive maximum tolerated dose (rMTD). Male and female Swiss-Webster mice were treated with sMTD for 10 consecutive days. […] If adverse effects were recorded, the daily doses were reduced two-fold in follow-up work. At the end of the study, mice were euthanized by CO2 asphyxiation followed by cervical dislocation.

Data set [2] relates to endocytosis of transferrin (Tf) in Trypanosoma brucei. The data set can be described thus: Endocytosis of transferrin (flow cytometry). The conditions noted are these: for Effect on endocytosis of Tf / Endocytosis Transferrin: DTC25; for Increase of Tf endocytosis compared to DMSO: DTC25, 6 h, not statistically significant; for Endocytosis Transferrin: Table S3. The format is cell-based. The protocol:
Cells were washed and resuspended in serum-free medium. Trypanosomes were incubated with fluorescent endocytosis ligands transferrin (Tf) or bovine serum albumin (BSA) for 30 min (37 °C). A flow cytometer was used to detect fluorescence intensity per cell. Propidium iodide (PI) was used to stain and gate out non-viable cells. Histograms present fluorescence intensity of Tf-AF488 (A) or BSA-AF647 (B) for every cell (n > 10,000 for each cargo) in DMSO or drug-treated samples. Points on the scatter plot represent mean fluorescence intensities of Tf (C) or BSA (D) from three biological replicates (calculated with FlowJo). Bars indicate mean ± SD. Student’s t-test was used to evaluate statistical significance of differences in mean intensity of endocytosed ligand in DMSO-treated sample compared to curaxin-treated samples.
Curaxin or DMSO-treated trypanosomes (5 × 10^5/mL) were washed with serum-free HMI-9 medium (500 uL). Trypanosomes were resuspended in serum-free HMI-9 medium (100 μL) supplemented with either transferrin–[…] conjugate (50 μg, Invitrogen, Eugene, OR) or BSA–AlexaFluor647 conjugate (50 μg, Invitrogen, Eugene, OR) for 30 min at 37 °C, 5% CO2. Cells were transferred to an ice-water bath, washed with cold PBS/G at 4 °C (3,000 g for 5 min), resuspended in PBS/G (500 μL) containing propidium iodide (3 μM), and analyzed on a flow cytometer (Beckman Coulter CytoFLEX S). FlowJo software (FlowJo, LLC) was used to gate trypanosomes based on size and shape (forward and side scatter features), and fluorescence intensity of endocytosed protein was measured in viable cells (negative for propidium iodide uptake). FlowJo software was used to determine the mean fluorescence intensity of each cargo in trypanosomes (at least 10,000 events). Data from three independent biological experiments were analyzed with a two-tailed Student’s t-test with unequal variance to determine the possible statistical significance of differences in means of fluorescence intensities of endocytosed cargo.
Background: In flow cytometry, cells or beads pass a laser one at a time.

Data set [3] relates to Trypanosoma brucei Lister427. In words: Recovery of trypanosome proliferation after 6-h exposure to Cmax or AUC0–6h amounts in 50% serum. The class given is cell-based. Particulars: for Trypanocidal or cytostatic outcome: 6-h treatment with Cmax equivalents. The protocol:
Recovery of trypanosome proliferation after a 6-h exposure to curaxins
The in vivo plasma exposure of trypanosomes to drug is expressed as area under the curve (AUC) in pharmacokinetic analysis. Theoretically, the same drug exposures in vitro and in vivo will be achieved within 6 h if the in vitro compound concentration × 6 h value was equal to in vivo AUC0–6h. […] AUC0–6h unbound is equal to the AUC0–6h × fraction of drug unbound to plasma (PFU) (Table 4).
Trypanosomes (1 × 10^5/mL) were treated with a concentration equivalent of the AUC0–6h unbound (Table 4) of each compound. After 6 h, cells were washed and resuspended (1 × 10^5 cells/mL) in drug-free medium. […] Proliferation recovery time was recorded post drug wash-off as described above.

The mark [4] stands for this setting: 6-h treatment with Cmax amount (CBL0137 1.85, CBL0174 1.04, CBL0187 0.72 μM), 50% serum, NR = no recovery 84 h after wash-off.

Molecule `CC(=O)c1cc2c3cc(C(C)=O)c(O)cc3n(CCCN(C)C)c2cc1O` [CBL0174, 1-[6-acetyl-9-[3-(dimethylamino)propyl]-2,7-dihydroxy-carbazol-3-yl]ethanone] came in with an EC50 in the data set on T. brucei Lister427 of 21 nM. Further, in data set [1], the AUC(0-t) was 3.14 ± 0.25 µM·h. In data set [1] (female), the Tmax worked out at 1 h and the half-life was 3.61 h. In data set [1] (male), the Tmax turned out to be 1 h and the half-life is 4.33 h. Also, the MTD at 10 days in the data set “in vivo” was 60 mg/kg. In data set [2], the “Fold increase of Tf endocytosis compared to DMSO” value stood at 1.39, the “Effect on endocytosis of Tf” value is “did not promote endocytosis of Tf”, the “Increase of Tf endocytosis compared to DMSO” value was 39% and the “Endocytosis Transferrin” value was “Activated”. The Latency of proliferation in data set [3] was 66 h. For the same molecule, in data set [3] (setting [4]), the Latency of proliferation is reported as 66 h. For the same molecule, in data set [3] (50% serum), the “Trypanocidal or cytostatic outcome” value was “cytostatic”.

As for `CC(=O)c1cc2c3cc(C(C)=O)c(O)cc3n(CCNC(C)C)c2cc1O` [CBL0187, 1-[6-acetyl-2,7-dihydroxy-9-[2-(isopropylamino)ethyl]carbazol-3-yl]ethanone], in the data set with T. brucei Lister427, the EC50 came out at 8.9 nM. The AUC(0-t) in data set [1] amounted to 2.95 ± 0.18 µM·h. In data set [1] (female), the Tmax amounted to 1.5 ± 0.7 h and the half-life is > 6 h. For the same molecule, in data set [1] (male), the Tmax is 2 h and the half-life is > 6 h. Moreover, the MTD at 10 days in the data set “in vivo” came out at 50 mg/kg. Also, in data set [2], the “Fold increase of Tf endocytosis compared to DMSO” value is recorded as 1.31, the “Effect on endocytosis of Tf” value is given as “had no effect on the pathway”, the “Increase of Tf endocytosis compared to DMSO” value is given as 30.9% and the “Endocytosis Transferrin” value is recorded as “Activated”. The same molecule returned a Latency of proliferation in data set [3] of 30 h. The Latency of proliferation in data set [3] (setting [4]) stood at 6 h. The “Time to resumption of proliferation (before subtracting 18 h of control)” value in data set [3] (6-h treatment with Cmax equivalent, 50% serum) was 24 h. The “Trypanocidal or cytostatic outcome” value in data set [3] (50% serum) was “not trypanocidal”.

For orientation: EC50 means the concentration that produces a half-maximal response. A high value points to a need for much substance. One may read the Tmax as the time at which the peak concentration occurs. As a reminder, the half-life is the time in which the quantity being followed falls by half.
